Earlier results on one substance are cited in US20260206743A1, “PROPINEB NANOSUSPENSION” (priority 2022, published 2026).

Like-named read-outs stand apart in the source and are kept apart here.

In the case of “poly [1,2-propylene bis(dithiocarbamate)] zinc [Propineb]”, the Solubility in water (20° C.) is below 10 µg/mL. Also, the “Solubility in organic solvent” value by setting is: (DMF+DMSO mixture) “exceed 200 g/L”; (dichloromethane) below 100 µg/mL; (hexane) below 100 µg/mL; (toluene) below 100 µg/mL.
